Key:
[1] = molecular target: T1, IRAK4 (Homo sapiens, UniProt Q9NWZ3); experiment: IRAK4 Degradation Assay (Karpas299, HTRF/TR-FRET); format: cell-based; conditions: Karpas-299 cells, 24 h treatment; for Dmax: maximum percentage of degradation, read-out: IRAK4 in Karpas-299 (24 h) Dmax (%); for DC50: read-out: IRAK4 in Karpas-299 (24 h) DC50
T1 construct: endogenous in cells; host or cells: Karpas299
T1 sequence (Q9NWZ3 1-460): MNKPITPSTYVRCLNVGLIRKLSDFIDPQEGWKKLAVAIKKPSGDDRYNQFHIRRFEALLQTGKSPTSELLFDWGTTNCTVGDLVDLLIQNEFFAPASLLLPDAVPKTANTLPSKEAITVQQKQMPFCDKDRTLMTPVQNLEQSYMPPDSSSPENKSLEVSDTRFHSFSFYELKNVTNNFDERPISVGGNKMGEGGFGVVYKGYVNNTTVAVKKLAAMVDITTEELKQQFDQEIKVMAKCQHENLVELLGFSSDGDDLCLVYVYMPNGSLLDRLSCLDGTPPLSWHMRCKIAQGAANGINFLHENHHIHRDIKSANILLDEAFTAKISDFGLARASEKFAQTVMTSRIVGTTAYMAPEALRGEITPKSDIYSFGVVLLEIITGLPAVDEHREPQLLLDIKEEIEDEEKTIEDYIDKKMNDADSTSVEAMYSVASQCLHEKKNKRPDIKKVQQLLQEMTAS
Outline: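 Karpas299 cells at 0.2 million per well were exposed to serially diluted compounds for 24 h or 5 h, then lysed. IRAK4 remaining in lysates was quantified by HTRF (665/620 nm) after overnight antibody incubation at room temperature. Percent degradation was fitted to a four-parameter curve to give IC50 (DC50).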

[2] = molecular target: T1, IRAK4; experiment: IRAK4 Degradation Assay with Human Serum (Karpas299, HTRF/TR-FRET); format: cell-based; conditions: Karpas-299 in human serum, 24 hrs treatment; for DC50: read-out: IRAK4 degradtion with human serum assay DC50; for Dmax: read-out: IRAK4 degradtion with human serum assay Dmax (%)
Procedure: IRAK4 degradation was measured using a TR-FRET-based method (Degorce, François, et al. Current chemical genomics. 2009, 3: 22). Karpas299 resuspended in Human serum AB (GEMINI, 100-512) were seeded into 96-well plates at the density of 0.2 million cells per well and then treated with a series dilution of compounds. After 24 hrs treatment, cells were pelleted via centrifugation and washed with PBS, add 40 μL lysis buffer (Cisbio) to each well after removal of the supernatant. Plates were then incubated at room temperature with shaking for 30 minutes. A total of 16 μL of cell lysates from each well of a 96-well plate was transferred to a 384-well white assay plate. IRAK4 level was quantitated using the HTRF kit as described by the manufacturer manual (Cisbio). FRET signals were measured using a PHERAstar FSX reader (BMG Labtech).
After treatment, add HTRF lysis buffer to each well; seal the plate and incubate 1 hour at room temperature on a plate shaker; Once the cells are lysed, 16 μL of cell lysate are transferred to a PE 384-well HTRF detection plate; 4 μL of pre-mixed HTRF antibodies are added to each well; Cover the plate with a plate sealer, spin 1000 rpm for 1 min, Incubate overnight at room temperature; Read on BMG PheraStar with HTRF protocol (337 nm-665 nm-620 nm).
The inhibition (degradation) percentage of the compound was calculated by the following equation: […]
The IC50 (DC50) value of a compound can be obtained by fitting the following equation
Wherein, X and Y are known values, and IC50, Hillslope, Top and Bottom are the parameters obtained by fitting with software. Y is the inhibition percentage (calculated from the equation), X is the concentration of the compound; IC50 is the concentration of the compound when the […] is reached. The smaller the IC50 value is, the stronger the inhibitory ability of the compound is. Vice versa, the higher the IC50 value is, the weaker the ability the inhibitory ability of the compound is; Hillslope represents the slope of the fitted curve, generally around 1 *; Bottom represents the minimum value of the curve obtained by data fitting, which is generally 0%±20%; Top represents the maximum value of the curve obtained by data fitting, which is generally 100%±20%. The experimental data were fitted by calculating and analyzing with Dotmatics data analysis software.

## CC(C)(O)c1cc2nn([C@H]3CC[C@H](CN4CCN(C5CN(c6cc(F)c([C@H]7CCC(=O)NC7=O)c(F)c6)C5)CC4)CC3)cc2cc1NC(=O)c1ccc2cc(C#N)cnn12 [Example 421, 3-cyano-N-(2-((1r,4r)-4-((4-(1-(4-((R)-2,6-dioxopiperidin-3-yl)-3,5-difluorophenyl)azetidin-3-yl)piperazin-1-yl)methyl)cyclohexyl)-6-(2-hydroxypropan-2-yl)-2H-indazol-5-yl)pyrrolo[1,2-b]pyridazine-7-carboxamide]
[1]
  Dmax: 95%
  DC50: 0.8 nM
[2]
  DC50: 15 nM
  Dmax: 97%

## C[C@H]1CN(C2CCN(c3cc(F)c([C@H]4CCC(=O)NC4=O)c(F)c3)CC2)CCN1[C@H]1CC[C@H](n2cc3cc(NC(=O)c4ccc5cc(C#N)cnn45)c(C(C)(C)O)cc3n2)CC1 [Example 307, 3-cyano-N-(2-((1S,4r)-4-((S)-4-(1-(4-((R)-2,6-dioxopiperidin-3-yl)-3,5-difluorophenyl)piperidin-4-yl)-2-methylpiperazin-1-yl)cyclohexyl)-6-(2-hydroxypropan-2-yl)-2H-indazol-5-yl)pyrrolo[1,2-b]pyridazine-7-carboxamide]
[1]
  Dmax: 100%
  DC50: 0.5 nM
[2]
  DC50: 3.6 nM
  Dmax: 99%

## COc1cc2nn([C@H]3CC[C@H](N4CCN(C(=O)C5CN(c6cc(F)c([C@H]7CCC(=O)NC7=O)c(F)c6)C5)CC4)CC3)cc2cc1NC(=O)c1ccc2cc(C#N)cnn12 [Example 336, 3-cyano-N-(2-((1r,4r)-4-(4-(1-(4-((R)-2,6-dioxopiperidin-3-yl)-3,5-difluorophenyl)azetidine-3-carbonyl)piperazin-1-yl)cyclohexyl)-6-methoxy-2H-indazol-5-yl)pyrrolo[1,2-b]pyridazine-7-carboxamide]
[1]
  Dmax: 100%
  DC50: 0.2 nM
[2]
  DC50: 13 nM
  Dmax: 92%

## C[C@H]1CN(C2CN(c3cc(F)c([C@H]4CCC(=O)NC4=O)c(F)c3)C2)CCN1[C@H]1CC[C@H](n2cc3cc(NC(=O)c4ccc5cc(C#N)cnn45)c(C(C)(C)O)cc3n2)CC1 [Example 308, 3-cyano-N-(2-((1S,4r)-4-((S)-4-(1-(4-((R)-2,6-dioxopiperidin-3-yl)-3,5-difluorophenyl)azetidin-3-yl)-2-methylpiperazin-1-yl)cyclohexyl)-6-(2-hydroxypropan-2-yl)-2H-indazol-5-yl)pyrrolo[1,2-b]pyridazine-7-carboxamide]
[1]
  Dmax: 97%
  DC50: 1.5 nM
[2]
  DC50: 8.9 nM
  Dmax: 99%

## CC(C)(O)c1cc2nn([C@H]3CC[C@H](N4CCN(C5CCN(c6ccc7c(c6)C(=O)N(C6CCC(=O)NC6=O)C7=O)CC5)CC4)CC3)cc2cc1NC(=O)c1ccc2cc(C#N)cnn12 (stereo partly drawn) [Example 430, 3-cyano-N-(2-((1r,4r)-4-(4-(1-(2-(2,6-dioxopiperidin-3-yl)-1,3-dioxoisoindolin-5-yl)piperidin-4-yl)piperazin-1-yl)cyclohexyl)-6-(2-hydroxypropan-2-yl)-2H-indazol-5-yl)pyrrolo[1,2-b]pyridazine 7-carboxamide]
[1]
  Dmax: 97%
  DC50: 1.4 nM
[2]
  DC50: 15 nM
  Dmax: 98%

## CC(C)(O)c1cc2nn(C3CCC4(CC3)CCN(C3CN(c5cc(F)c([C@H]6CCC(=O)NC6=O)c(F)c5)C3)CC4)cc2cc1NC(=O)c1ccc2cc(C#N)cnn12 [Example 428, (R)-3-cyano-N-(2-(3-(1-(4-(2,6-dioxopiperidin-3-yl)-3,5-difluorophenyl)azetidin-3-yl)-3-azaspiro[5.5]undecan-9-yl)-6-(2-hydroxypropan-2-yl)-2H-indazol-5-yl)pyrrolo[1,2-b]pyridazine-7-carboxamide]
[1]
  Dmax: 93%
  DC50: 2.9 nM
[2]
  DC50: 33 nM
  Dmax: 94%

## CC(C)(O)c1cc2nn([C@H]3CC[C@H](N4CCN(C(=O)C5CN(c6cnc(C7CCC(=O)NC7=O)c(F)c6)C5)CC4)CC3)cc2cc1NC(=O)c1ccc2cc(C#N)cnn12 (stereo partly drawn) [Example 187, 3-cyano-N-(2-((1r,4r)-4-(4-(1-(6-(2,6-dioxopiperidin-3-yl)-5-fluoropyridin-3-yl)azetidine-3-carbonyl)piperazin-1-yl)cyclohexyl)-6-(2-hydroxypropan-2-yl)-2H-indazol-5-yl)pyrrolo[1,2-b]pyridazine-7-carboxamide]
[1]
  Dmax: 96%
  DC50: 0.6 nM
[2]
  DC50: 11 nM
  Dmax: 98%

## COc1cc2nn([C@H]3CC[C@H](N4CCN(C(=O)C5CN(c6cc(F)c([C@H]7CCC(=O)NC7=O)c(F)c6)C5)CC4)CC3)cc2cc1C(=O)Nc1cnc2cccnn12 [Example 343, 2-((1r,4r)-4-(4-(1-(4-((R)-2,6-dioxopiperidin-3-yl)-3,5-difluorophenyl)azetidine-3-carbonyl)piperazin-1-yl)cyclohexyl)-N-(imidazo[1,2-b]pyridazin-3-yl)-6-methoxy-2H-indazole-5-carboxamide]
[1]
  Dmax: 97%
  DC50: 0.1 nM
[2]
  DC50: 2.3 nM
  Dmax: 102%

## CC(C)(O)c1cc2nn([C@H]3CC[C@H](N4CCN(C(=O)N5CCN(c6ccc(C7CCC(=O)NC7=O)cc6)CC5)CC4)CC3)cc2cc1NC(=O)c1ccc2cc(C#N)cnn12 (stereo partly drawn) [Example 292, 3-cyano-N-(2-((1r,4r)-4-(4-(4-(4-(2,6-dioxopiperidin-3-yl)phenyl)piperazine-1-carbonyl)piperazin-1-yl)cyclohexyl)-6-(2-hydroxypropan-2-yl)-2H-indazol-5-yl)pyrrolo[1,2-b]pyridazine-7-carboxamide]
[1]
  Dmax: 94%
  DC50: 1.8 nM
[2]
  DC50: 37 nM
  Dmax: 95%

## CCc1cc(N2CC(C(=O)N3CCN([C@H]4CC[C@H](n5cc6cc(NC(=O)c7ccc8cc(C#N)cnn78)c(C(C)(C)O)cc6n5)CC4)CC3)C2)ccc1N1CCC(=O)NC1=O [Example 257, 3-cyano-N-(2-((1r,4r)-4-(4-(1-(4-(2,4-dioxotetrahydropyrimidin-1(2H)-yl)-3-ethylphenyl)azetidine-3-carbonyl)piperazin-1-yl)cyclohexyl)-6-(2-hydroxypropan-2-yl)-2H-indazol-5-yl)pyrrolo[1,2-b]pyridazine-7-carboxamide]
[1]
  Dmax: 97%
  DC50: 1.7 nM
[2]
  DC50: 28 nM
  Dmax: 97%

## CC(C)(O)c1cc2nn([C@H]3CC[C@H](N4CCN(C(=O)C5CCN(c6cc(F)c([C@H]7CCC(=O)NC7=O)c(F)c6)CC5)CC4)CC3)cc2cc1NC(=O)c1ccc2cc(C#N)cnn12 [Example 291]
[1]
  Dmax: 97%
  DC50: 0.6 nM
[2]
  DC50: 48 nM
  Dmax: 97%

## CC(C)(O)c1cc2nn([C@H]3CC[C@H](N4CCN(CC5CN(c6cc(F)c([C@H]7CCC(=O)NC7=O)c(F)c6)C5)C[C@@H]4CO)CC3)cc2cc1NC(=O)c1ccc2cc(C#N)cnn12 [Example 400, 3-cyano-N-(2-((1R,4r)-4-((R)-4-((1-(4-((R)-2,6-dioxopiperidin-3-yl)-3,5-difluorophenyl)azetidin-3-yl)methyl)-2-(hydroxymethyl)piperazin-1-yl)cyclohexyl)-6-(2-hydroxypropan-2-yl)-2H-indazol-5-yl)pyrrolo[1,2-b]pyridazine-7-carboxamide]
[1]
  Dmax: 97%
  DC50: 0.5 nM
[2]
  DC50: 3.8 nM
  Dmax: 97%
